Patent US11638427B2, “Methods and compositions for altering secondary metabolites in plants” (Impello Biosciences, Inc, priority 2020, dated 2023)
Several values for one entry are separate records, joined by “and”; a condition that tells them apart may be missing. Equal entries are not always repeated.

Tested on: CBDRx Cherry hemp clones
Assay: Foliar spray of MS, MDJ and MS+MDJ on hemp clones: biomass, cannabinoid and terpene analysis
Type: in vivo, Cannabis spp.
Set-up: CBDA / CBD / THCA / Total CBG / Total cannabinoids: unit not given here
Conditions: for plants died before the end of the experiment: four plants per treatment group
Protocol: Methyl salicylate (MS) is an antagonistic compound to the jasmonates. To investigate the effect of MS alone and in conjunction with MDJ, MS (CAS No.: 119-36-8), MDJ, and the combination (MS+MDJ) were applied by foliar spray to CBDRx Cherry hemp clones once per week during both vegetative and flowering phases. Plants were transplanted into 1-gallon pots with Red's soil and put into vegetative light cycle (18L/6D). […] Plants were grown under a total of 12 Boost (Thrive Agritech, NY) 130-watt LED lights set to 18L: 6D photoperiod during the vegetative phase (2 weeks) and this was followed by a 12L: 12D photoperiod during the flowering phase (7 weeks), using the same lighting fixtures. Throughout the nine weeks, all plants were watered when needed with Jack's nutrients.
MS or MDJ treatments were applied at the following concentrations: [1 mM], [4.25 mM], [7.5 mM] and [10 mM]. Each concentration was prepared from a one molar stock solution diluted with RO water and TWEEN®-20 (1M stock) was added. Each plant was sprayed till dripping, which was approximately 50-75 ml. To apply the combination of the two biochemicals, MS and MDJ were sprayed separately but simultaneously, to ensure each compound was applied evenly onto the plant. Each compound was applied using a SPRAYMASTER Chemical Sprayer (King of Prussia, Pa.).
Plants were harvested two months after transplant. After harvesting, plants were air dried at room temperature for two weeks. Once plants were sufficiently dry, above ground dry weights were recorded and dried flower samples were collected and sent to a third-party lab for terpene and cannabinoid analysis. Two plants (#3 and #4) in treatment group MDJ [7.5] mM, two plants (#3 and #4) in MS [4.25] mM, one plant (#4) in MS [7.5], and one plant (#4) in MDJ [10] died before the end of the experiment.

[1] = 1 mM foliar spray, Avg. of group
[2] = 1 mM foliar spray, individual plant
[3] = 4.25 mM foliar spray, Avg. of group
[4] = 4.25 mM foliar spray, individual plant
[5] = 7.5 mM foliar spray, Avg. of group
[6] = 7.5 mM foliar spray, individual plant
[7] = 10 mM foliar spray, Avg. of group
[8] = 10 mM foliar spray, individual plant

Molecule `COC(=O)c1ccccc1O` [MS, Methyl salicylate] has an Alpha-bisabolol [1] of 0.08263 % wt/wt, an Alpha-humulene [1] of 0.07955 % wt/wt and a Beta-caryophyllene [1] of 0.2069 % wt/wt. It also gave a CBCA [1] of 0.715, a CBD [1] of 0.105 and a CBDA [1] of 13.675. For the same molecule, the CBGA [1] was 0.365, the Limonene [1] was 0.1101 % wt/wt and the THCA [1] was 0.6. For the same molecule, the “Total CBD” value [1] was 12.1025, the “Total CBG” value [1] was 0.32 and the Total cannabinoids [1] was 15.46. For the same molecule, the “Total d9THC” value [1] was 0.525, the alpha-pinene [1] was 0 % wt/wt and the beta-myrcene [1] was 0.8188 % wt/wt. The beta-pinene [1] was 0.02077 % wt/wt, the total terpenes [1] was 1.435 % wt/wt and the Alpha-bisabolol [2] was 0.0925 % wt/wt and 0.1053 % wt/wt and 0.1236 % wt/wt and 0.00912 % wt/wt. The Alpha-humulene [2] was 0.076 % wt/wt and 0.0724 % wt/wt and 0.0922 % wt/wt and 0.0776 % wt/wt, the Beta-caryophyllene [2] was 0.1974 % wt/wt and 0.1911 % wt/wt and 0.243 % wt/wt and 0.1959 % wt/wt and the CBCA [2] was 0.82 and 0.64 and 0.67 and 0.73. For the same molecule, the CBD [2] was 0.13 and 0 and 0.12 and 0.17, the CBDA [2] was 15.19 and 12.85 and 13.24 and 13.42 and the CBGA [2] was 0.42 and 0.34 and 0.32 and 0.38. For the same molecule, the Limonene [2] was 0.1096 % wt/wt and 0.11 % wt/wt and 0.1101 % wt/wt and 0.1106 % wt/wt, the THCA [2] was 0.66 and 0.56 and 0.58 and 0.6 and the “Total CBD” value [2] was 13.45 and 11.27 and 11.74 and 11.95. For the same molecule, the “Total CBG” value [2] was 0.37 and 0.3 and 0.28 and 0.33, the Total cannabinoids [2] was 17.22 and 14.39 and 14.93 and 15.3 and the “Total d9THC” value [2] was 0.58 and 0.49 and 0.51 and 0.52. The alpha-pinene [2] was 0 % wt/wt, the beta-myrcene [2] was 0.7692 % wt/wt and 0.8926 % wt/wt and 0.845 % wt/wt and 0.7684 % wt/wt and the beta-pinene [2] was 0.0215 % wt/wt and 0.0201 % wt/wt and 0.021 % wt/wt and 0.0205 % wt/wt. For the same molecule, the total terpenes [2] was 1.36 % wt/wt (2×) and 1.48 % wt/wt and 1.54 % wt/wt, the Alpha-bisabolol [3] was 0.1143 % wt/wt and the Alpha-humulene [3] was 0.0794 % wt/wt. For the same molecule, the Beta-caryophyllene [3] was 0.1996 % wt/wt, the CBCA [3] was 0.61 and the CBD [3] was 0.16. The CBDA [3] was 11.8, the CBGA [3] was 0.275 and the Limonene [3] was 0.1 % wt/wt. The THCA [3] was 0.51, the “Total CBD” value [3] was 10.505 and the “Total CBG” value [3] was 0.24. For the same molecule, the Total cannabinoids [3] was 13.355, the “Total d9THC” value [3] was 0.45 and the alpha-pinene [3] was 0 % wt/wt. For the same molecule, the beta-myrcene [3] was 0.7751 % wt/wt, the beta-pinene [3] was 0.0197 % wt/wt and the total terpenes [3] was 1.38 % wt/wt. The “plants died before the end of the experiment” value (4.25 mM foliar spray) was “two plants”, the Alpha-bisabolol [4] was 0.1185 % wt/wt and 0.1101 % wt/wt and the Alpha-humulene [4] was 0.0819 % wt/wt and 0.0769 % wt/wt. For the same molecule, the Beta-caryophyllene [4] was 0.2091 % wt/wt and 0.19 % wt/wt, the CBCA [4] was 0.61 and the CBD [4] was 0.15 and 0.17. The CBDA [4] was 11.88 and 11.72, the CBGA [4] was 0.27 and 0.28 and the Limonene [4] was 0.1042 % wt/wt and 0.0958 % wt/wt. For the same molecule, the THCA [4] was 0.52 and 0.5, the “Total CBD” value [4] was 10.57 and 10.44 and the “Total CBG” value [4] was 0.24. For the same molecule, the Total cannabinoids [4] was 13.43 and 13.28, the “Total d9THC” value [4] was 0.46 and 0.44 and the alpha-pinene [4] was 0 % wt/wt. The beta-myrcene [4] was 0.8061 % wt/wt and 0.744 % wt/wt, the beta-pinene [4] was 0.0209 % wt/wt and 0.0185 % wt/wt and the total terpenes [4] was 1.43 % wt/wt and 1.33 % wt/wt. The Alpha-bisabolol [5] was 0.1235 % wt/wt, the Alpha-humulene [5] was 0.09093 % wt/wt and the Beta-caryophyllene [5] was 0.23 % wt/wt. For the same molecule, the CBCA [5] was 0.66, the CBD [5] was 0.1833 and the CBDA [5] was 12.833. For the same molecule, the CBGA [5] was 0.41, the Limonene [5] was 0.09533 % wt/wt and the THCA [5] was 0.57. For the same molecule, the “Total CBD” value [5] was 11.44, the “Total CBG” value [5] was 0.356 and the Total cannabinoids [5] was 14.656. The “Total d9THC” value [5] was 0.5, the alpha-pinene [5] was 0 % wt/wt and the beta-myrcene [5] was 0.7014 % wt/wt. For the same molecule, the beta-pinene [5] was 0 % wt/wt, the total terpenes [5] was 1.343 % wt/wt and the “plants died before the end of the experiment” value (7.5 mM foliar spray) was “one plant”. For the same molecule, the Alpha-bisabolol [6] was 0.1154 % wt/wt and 0.1201 % wt/wt and 0.1349 % wt/wt, the Alpha-humulene [6] was 0.0878 % wt/wt and 0.083 % wt/wt and 0.102 % wt/wt and the Beta-caryophyllene [6] was 0.2204 % wt/wt and 0.2101 % wt/wt and 0.2595 % wt/wt. The CBCA [6] was 0.68 (2×) and 0.62, the CBD [6] was 0.3 and 0.1 and 0.15 and the CBDA [6] was 12.97 and 12.23 and 13.3. For the same molecule, the CBGA [6] was 0.4 and 0.37 and 0.46, the Limonene [6] was 0.0902 % wt/wt and 0.0968 % wt/wt and 0.099 % wt/wt and the THCA [6] was 0.57 and 0.55 and 0.59. The “Total CBD” value [6] was 11.68 and 10.83 and 11.81, the “Total CBG” value [6] was 0.35 and 0.32 and 0.4 and the Total cannabinoids [6] was 14.92 and 13.87 and 15.18. The “Total d9THC” value [6] was 0.5 and 0.48 and 0.52, the alpha-pinene [6] was 0 % wt/wt and the beta-myrcene [6] was 0.6564 % wt/wt and 0.7151 % wt/wt and 0.7328 % wt/wt. The beta-pinene [6] was 0 % wt/wt, the total terpenes [6] was 1.27 % wt/wt and 1.32 % wt/wt and 1.44 % wt/wt and the Alpha-bisabolol [7] was 0.109 % wt/wt. It also gave an Alpha-humulene [7] of 0.07612 % wt/wt, a Beta-caryophyllene [7] of 0.1899 % wt/wt and a CBCA [7] of 0.73. It also gave a CBD [7] of 0.155, a CBDA [7] of 14.5975 and a CBGA [7] of 0.4775. The Limonene [7] was 0.1418 % wt/wt, the THCA [7] was 0.625 and the “Total CBD” value [7] was 12.96. The “Total CBG” value [7] was 0.42, the Total cannabinoids [7] was 16.585 and the “Total d9THC” value [7] was 0.55. The alpha-pinene [7] was 0.01702 % wt/wt, the beta-myrcene [7] was 1.084 % wt/wt and the beta-pinene [7] was 0.02447 % wt/wt. The total terpenes [7] was 1.725 % wt/wt, the Alpha-bisabolol [8] was 0.1326 % wt/wt and 0.0981 % wt/wt and 0.1139 % wt/wt and 0.0915 % wt/wt and the Alpha-humulene [8] was 0.0912 % wt/wt and 0.0723 % wt/wt and 0.0736 % wt/wt and 0.0674 % wt/wt. The Beta-caryophyllene [8] was 0.2182 % wt/wt and 0.1794 % wt/wt and 0.192 % wt/wt and 0.1699 % wt/wt, the CBCA [8] was 0.71 and 0.73 and 0.72 and 0.76 and the CBD [8] was 0.17 and 0.12 and 0.33 and 0. The CBDA [8] was 15.33 and 14.37 and 13.89 and 14.8, the CBGA [8] was 0.5 (2×) and 0.46 and 0.45 and the Limonene [8] was 0.213 % wt/wt and 0.1272 % wt/wt and 0.113 % wt/wt and 0.1141 % wt/wt. The THCA [8] was 0.65 and 0.63 (2×) and 0.59, the “Total CBD” value [8] was 13.61 and 12.73 and 12.52 and 12.98 and the “Total CBG” value [8] was 0.44 (2×) and 0.4 (2×). For the same molecule, the Total cannabinoids [8] was 17.36 and 16.31 and 15.98 and 16.69, the “Total d9THC” value [8] was 0.57 and 0.55 and 0.52 and 0.56 and the alpha-pinene [8] was 0.0398 % wt/wt and 0.0283 % wt/wt and 0 % wt/wt (2×). The beta-myrcene [8] was 1.6091 % wt/wt and 0.9913 % wt/wt and 0.8332 % wt/wt and 0.9015 % wt/wt, the beta-pinene [8] was 0.0299 % wt/wt and 0.023 % wt/wt and 0.0257 % wt/wt and 0.0193 % wt/wt and the total terpenes [8] was 2.43 % wt/wt and 1.6 % wt/wt and 1.43 % wt/wt and 1.44 % wt/wt. For the same molecule, the total terpene content (application of 1 mM or 4.25 mM) was “increased” and the “Aboveground fresh weight and dried weight compared to the control plants” value (at both 1 mM and 10 mM) was “significantly reduced”.
